Reference: patent US6620828B2, “Thiazole compounds and pharmaceutical compositions for inhibiting protein kinases and methods for their use” (Agouron Pharmaceuticals, Inc., priority 1999, dated 2003)
Like-named read-outs stand apart in the source and are kept apart here.

Key:
[1] = target: T1, phosphorylated VEGF-R2Δ50 (Homo sapiens, UniProt P35968, DEL940-989/E990V); assay: VEGF-R2 ELISA assay; assay type: biochemical; conditions: * determined with ELISA assay, read-out: FLVK-P Ki
T1 construct: VEGF-R2Δ50 contains residues 806-939 and 990-1171; made in house; host or cells: baculovirus/insect cells
T1 sequence (P35968 with tags, fused parts or gaps DEL940-989/E990V limits assumed): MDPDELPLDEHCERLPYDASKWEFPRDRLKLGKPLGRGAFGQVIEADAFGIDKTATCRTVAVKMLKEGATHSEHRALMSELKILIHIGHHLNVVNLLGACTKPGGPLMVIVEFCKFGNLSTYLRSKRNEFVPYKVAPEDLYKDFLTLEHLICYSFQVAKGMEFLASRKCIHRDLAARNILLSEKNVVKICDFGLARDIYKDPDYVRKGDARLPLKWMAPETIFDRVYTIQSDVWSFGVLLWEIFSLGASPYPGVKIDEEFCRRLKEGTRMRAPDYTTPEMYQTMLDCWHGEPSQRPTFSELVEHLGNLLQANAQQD
Description: VEGF-R2 Construct for Assay: This construct determines the ability of a test compound to inhibit tyrosine kinase activity. A construct (VEGF-R2Δ50) of the cytosolic domain of human vascular endothelial growth factor receptor 2 (VEGF-R2) lacking the 50 central residues of the 68 residues of the kinase insert domain was expressed in a baculovirus/insect cell system. Of the 1356 residues of full-length VEGF-R2, VEGF-R2Δ50 contains residues 806-939 and 990-1171, and also one point mutation (E990V) within the kinase insert domain relative to wild-type VEGF-R2. Autophosphorylation of the purified construct was performed by incubation of the enzyme at a concentration of 4 μM in the presence of 3 mM ATP and 40 mM MgCl2 in 100 mM Hepes, pH 7.5, containing 5% glycerol and 5 mM DTT, at 4° C. for 2 h. […] See Parast et al., Biochemistry, 37, 16788-16801 (1998).
Formation of phosphogastrin was monitored using biotinylated gastrin peptide (1-17) as substrate. Biotinylated phosphogastrin was immobilized using streptavidin coated 96-well microtiter plates followed by detection using anti-phosphotyrosine-antibody conjugated to horseradish peroxidase. The activity of horseradish peroxidase was monitored using 2,2′-azino-di-[3-ethylbenzathiazoline sulfonate(6)]diammonium salt (ABTS). Typical assay solutions contained: 2 μM biotinylated gastrin peptide; 5 mM DTT; 20 μM ATP; 26 mM MgCl2; and 2 mM MnCl2 in 200 mM Hepes, pH 7.5. The assay was initiated with 0.8 nM of phosphorylated VEGF-R2Δ50. Horseradish peroxidase activity was assayed using ABTS, 10 mM. The horseradish peroxidase reaction was quenched by addition of acid (H2SO4), followed by absorbance reading at 405 nm. Ki values were determined by measuring enzyme activity in the presence of varying concentrations of test compounds. The data were analyzed using Enzyme Kinetic and Kaleidagraph software.

[2] = target: T2, phosphorylated VEGF-R2Δ50 (FLVK-P) (Homo sapiens, UniProt P35968, DEL940-989/E990V); assay: VEGF-R2 coupled spectrophotometric (FLVK-P) assay; assay type: biochemical; conditions: spectrophotometric assay
T2 construct: VEGF-R2Δ50 contains residues 806-939 and 990-1171; made in house; host or cells: baculovirus/insect cells
T2 sequence (P35968 with tags, fused parts or gaps DEL940-989/E990V limits assumed): as above
In short: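 Baculovirus-expressed human VEGF-R2Δ50 (residues 806-939/990-1171, E990V) was autophosphorylated with 3 mM ATP, 40 mM MgCl2 for 2 h at 4° C. ADP formation was coupled via PK/LDH to NADH oxidation, read at 340 nm, with 5.1 mM poly(E4Y1), 1 mM ATP, 25 mM MgCl2, Hepes pH 7.5. Ki came from activity across compound concentrations.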

CDK2/Cyclin A complex = CDK2/Cyclin A complex (Homo sapiens, UniProt P24941); assay: CDK2/Cyclin A assay; assay type: biochemical; conditions: Table 2
In short: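 Radiometric assay: 150 nM CDK2/cyclin A (insect-cell CDK2, truncated cyclin A) phosphorylates His-tagged Rb fragment (residues 386-928) with 25 μM ATP plus [32P]ATP, pH 7.4 HEPES, 2% DMSO, 30 °C for 20 min. Filter-captured product counted by phosphorimager; apparent Ki from competitive or tight-binding inhibition fits.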

CDK4/Cyclin D3 complex = target: T3, CDK4/Cyclin D3 complex (Homo sapiens, UniProt P11802); assay: CDK4/Cyclin D assay; assay type: biochemical; conditions: Table 2
T3 construct: made in house; host or cells: insect cells co-infected with baculovirus vectors
T3 sequence (P11802 whole entry): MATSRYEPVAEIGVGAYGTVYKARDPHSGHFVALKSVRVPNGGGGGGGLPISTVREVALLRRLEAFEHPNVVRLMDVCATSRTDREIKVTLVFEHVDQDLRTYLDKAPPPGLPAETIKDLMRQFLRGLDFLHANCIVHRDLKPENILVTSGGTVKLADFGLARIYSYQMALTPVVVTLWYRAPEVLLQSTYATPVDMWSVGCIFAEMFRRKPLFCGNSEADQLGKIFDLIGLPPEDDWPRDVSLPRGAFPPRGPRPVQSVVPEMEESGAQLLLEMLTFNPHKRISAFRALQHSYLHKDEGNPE
T3 sequence (P30281 whole entry partner): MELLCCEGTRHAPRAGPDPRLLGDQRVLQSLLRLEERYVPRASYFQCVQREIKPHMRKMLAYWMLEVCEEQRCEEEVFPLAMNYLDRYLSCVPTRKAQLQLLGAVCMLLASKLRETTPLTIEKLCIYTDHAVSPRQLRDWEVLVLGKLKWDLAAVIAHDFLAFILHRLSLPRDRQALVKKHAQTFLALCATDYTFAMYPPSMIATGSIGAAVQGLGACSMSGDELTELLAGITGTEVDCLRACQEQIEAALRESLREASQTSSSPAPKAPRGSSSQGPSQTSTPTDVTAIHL
In short: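 Insect-cell-expressed CDK4/cyclin D3 (50 nM) phosphorylating His-tagged Rb fragment (residues 386-928) with 25 μM [^32P]ATP in HEPES pH 7.4, MgCl2, 2% DMSO; 20 min at 30 °C, EDTA stop. Filter-captured 32P by phosphorimager; apparent Ki from competitive or tight-binding inhibition fits.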

CHK1 = target: T4, CHK1 (Homo sapiens, UniProt O14757); assay: CHK1 high-throughput screening; assay type: biochemical; conditions: read-out: % inhibition @ 20 μM, Table 4, repeated entries per example
T4 sequence (O14757 1-476): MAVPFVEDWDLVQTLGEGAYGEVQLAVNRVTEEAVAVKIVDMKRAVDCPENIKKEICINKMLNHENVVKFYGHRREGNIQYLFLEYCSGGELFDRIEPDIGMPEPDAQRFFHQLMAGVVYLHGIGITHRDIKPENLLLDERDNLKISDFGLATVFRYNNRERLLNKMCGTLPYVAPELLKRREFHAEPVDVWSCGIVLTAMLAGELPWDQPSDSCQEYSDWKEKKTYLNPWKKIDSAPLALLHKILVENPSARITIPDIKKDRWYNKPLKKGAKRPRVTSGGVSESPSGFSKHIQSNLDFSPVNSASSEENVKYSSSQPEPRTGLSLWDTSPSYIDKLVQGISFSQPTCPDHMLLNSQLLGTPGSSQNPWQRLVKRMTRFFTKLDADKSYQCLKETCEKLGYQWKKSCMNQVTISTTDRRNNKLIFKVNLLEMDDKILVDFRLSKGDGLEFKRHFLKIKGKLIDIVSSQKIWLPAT

[3] = test system: human umbilical vein endothelial cells (HUVEC); assay: HUVEC proliferation assay; assay type: cell-based; conditions: Homo sapiens, HUVEC, Table 1
In short: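 Exponentially growing HUVEC were serum-starved 24 h (F12K + 1% FBS), pre-treated 1 h with compound (0.1% DMSO final), then stimulated with 6 ng/ml VEGF. Proliferation was read 72 h later by MTT reduction (A595). IC50 came from seven 0.5-log concentrations in triplicate; screens gave % inhibition relative to VEGF-only and starved wells.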

[4] = test system: lung cancer cells (line MV522); assay: Cancer cell proliferation (MV522) assay; assay type: cell-based; conditions: MV522, Table 1
Procedure: Cancer Cell Proliferation (MV522) Assay
The protocol for assessing cellular proliferation in cancer cells is similar to that used for assessments in HUVEC cells. Two thousand lung cancer cells (line MV522, acquired from American Tissue Cultural Collection) were seeded in growth media (RPMI1640 medium supplemented with 2 mM glutamine and 10% FBS). Cells are allowed to attach for 1 day prior to addition of test agents and/or vehicles. Cells are treated simultaneously with the same test agents used in the HUVEC assay. Cellular proliferation is quantified by MTT dye reduction assay 72 hours after exposure to test agents. The total length of the assay is 4 days vs. 5 for HUVEC cells because MV522 cells are not exposed to starvation medium.

Ki ([1]; Table 1)	Ki ([1]; Table 2)	Compound	further results
	35000 nM	COc1cc(Nc2nc(N)c(C3=NC(C(C)C)CO3)s2)cc(OC)c1OC (racemic) [I(17), (R/S)-5-(4-Isopropyl-4,5-dihydro-oxazol-2-yl)-N^2-(3,4,5-trimethoxy-phenyl)-thiazole-2,4-diamine]	
29 nM		CCC(=O)Nc1cccc(-c2csc(-c3sc(Nc4cc(OC)c(OC)c(OC)c4)nc3N)n2)c1 [D(8), N-{3-[4′-Amino-2′-(3,4,5-trimethoxy-phenylamino)-[2,5′]bithiazolyl-4-yl]-phenyl}-propionamide]	
120 nM		CNC(=O)Nc1cccc(-c2csc(-c3sc(Nc4cc(OC)c(OC)c(OC)c4)nc3N)n2)c1 [D(7), 1-{3-[4′-Amino-2′-(3,4,5-trimethoxy-phenylamino)-[2,5′]bithiazolyl-4-yl]-phenyl}-3-methyl-urea]	
	73000 nM	COc1cc(Nc2nc(N)c(C3=NC(C)CO3)s2)cc(OC)c1OC (racemic) [I(15), (R/S)-5-(4-Methyl-4,5-dihydro-oxazol-2-yl)-N^2-(3,4,5-trimethoxy-phenyl)-thiazole-2,4-diamine]	
	1600 nM	COc1cc(Nc2nc(N)c(-c3noc(-c4ccsc4)n3)s2)cc(OC)c1OC [G(7), 5-(5-Thiophen-3-yl-[1,2,4]oxadiazol-3-yl)-N^2-(3,4,5-trimethoxy-phenyl)-thiazole-2,4-diamine]	CDK2 % inhibition @ 10 (CDK2/Cyclin A complex; at 10 (head μM)): 21% @
63 nM		COc1cc(Nc2nc(N)c(-c3nc(-c4cccc(NC(=O)Cc5ccccc5)c4)cs3)s2)cc(OC)c1OC [D(5), N-{3-[4′-Amino-2′-(3,4,5-trimethoxy-phenylamino)-[2,5′]bithiazolyl-4-yl]-phenyl}-2-phenyl-acetamide]	
120 nM		COc1cc(Nc2nc(N)c(-c3nc(-c4cccc(NC(=O)C(F)F)c4)cs3)s2)cc(OC)c1OC [D(14), N-{3-[4′-Amino-2′-(3,4,5-trimethoxy-phenylamino)-[2,5′]bithiazolyl-4-yl]-phenyl}-2,2-difluoro-acetamide]	

More lines, now with the values behind:

Compound	Ki ([1]; Table 1)	Ki ([1]; Table 2)	further results
COc1cc(Nc2nc(N)c(-c3nc(-c4cccc(NC(=O)CC(C)C)c4)cs3)s2)cc(OC)c1OC [D(9)]	47 nM		
COc1cc(Nc2nc(N)c(C3=NC(c4ccccc4Br)CO3)s2)cc(OC)c1OC (racemic) [I(13), (R/S)-5-[4-(2-Bromo-phenyl)-4,5-dihydro-oxazol-2-yl]-N^2-(3,4,5-trimethoxy-phenyl)-thiazole-2,4-diamine]		1250 nM	
COc1cc(Nc2nc(N)c(-c3nc(-c4cccc(NC(=O)C(F)(F)F)c4)cs3)s2)cc(OC)c1OC [D(13), N-{^3-[4′-Amino-2′-(3,4,5-trimethoxy-phenylamino)-[2,5′]bithiazolyl-4-yl]-phenyl}-2,2,2-trifluoro-acetamide]	120 nM		
COc1cc(Nc2nc(N)c(C3=NC(c4cccc(Br)c4)CO3)s2)cc(OC)c1OC (racemic) [I(14), (R/S)-5-[4-(3-Bromo-phenyl)-4,5-dihydro-oxazol-2-yl]-N^2-(3,4,5-trimethoxy-phenyl)-thiazole-2,4-diamine]		1170 nM	
COc1cc(Nc2nc(N)c(C3=NCC(C)O3)s2)cc(OC)c1OC (racemic) [I(19), (R/S)-5-(5-Methyl-4,5-dihydro-oxazol-2-yl)-N^2-(3,4,5-trimethoxy-phenyl)-thiazole-2,4-diamine]		34000 nM	
COc1cc(Nc2nc(N)c(-c3nc(-c4cccc(NC(=O)OC(C)C)c4)cs3)s2)cc(OC)c1OC [D(10), {3-[4′-Amino-2′-(3,4,5-trimethoxy-phenylamino)-[2,5′]bithiazolyl-4-yl]-phenyl}-carbamic acid isopropyl ester]	56 nM		
CNc1nc(N)c(-c2nc(-c3cccc(O)c3)cs2)s1 [A(30), 3-(4′-Amino-2′-methylamino-[2,5′]bithiazolyl-4-yl)-phenol]			Ki ([2]; Table 2): 110 nM; Ki (CDK2/Cyclin A complex): 4800 nM; Ki (CDK4/Cyclin D3 complex): 22000 nM; inhibition at 20 µM (CHK1): 3.4%
COc1cc(Nc2nc(N)c(-c3nc(-c4cccc(NC(=O)Oc5cccc6ccccc56)c4)cs3)s2)cc(OC)c1OC [D(22), {3-[4′-Amino-2′-(3,4,5-trimethoxy-phenylamino)-[2,5′]bithiazolyl-4-yl]-phenyl}-carbamic acid naphthalen-1-yl ester]	89 nM		
COc1cc(Nc2nc(N)c(C3=N[C@H](C)[C@H](c4ccccc4)O3)s2)cc(OC)c1OC [I(18), 5-(4(R)-Methyl-5(S)-phenyl-4,5-dihydro-oxazol-2-yl)-N^2-(3,4,5-trimethoxy-phenyl)-thiazole-2,4-diamine]		2700 nM	
COC(=O)Nc1cccc(-c2csc(-c3sc(Nc4cc(OC)c(OC)c(OC)c4)nc3N)n2)c1 [D(6), {3-[4′-Amino-2′-(3,4,5-trimethoxy-phenylamino)-[2,5′]bithiazolyl-4-yl]-phenyl}-carbamic acid methyl ester]	25 nM		
COc1cc(Nc2nc(N)c(C3=N[C@H](c4ccccc4)CO3)s2)cc(OC)c1OC [I(7), R-5-(4-Phenyl-4,5-dihydro-oxazol-2-yl)-N^2-(3,4,5-trimethoxyl-phenyl)-thiazole-2,4-diamine]		5200 nM	
COc1cc(Nc2nc(N)c(C3=N[C@@H](C)C(c4ccccc4)O3)s2)cc(OC)c1OC (stereo in doubt) [I(16), 5-(4-Methyl-5-phenyl-4,5-dihydro-oxazol-2-yl)-N^2-(3,4,5-trimethoxy-phenyl)-thiazole-2,4-diamine]		178000 nM	
COc1cc(Nc2nc(N)c(-c3nc(-c4cccc(NC(=O)COc5ccccc5)c4)cs3)s2)cc(OC)c1OC [D(15), N-{3-[4′-Amino-2′-(3,4,5-trimethoxy-phenylamino)-[2,5′]bithiazolyl-4-yl]-phenyl}-2-phenoxy-acetamide]	240 nM		
Nc1nc(Nc2cccc(C(=O)O)c2)sc1-c1nc(-c2cccc(NC(=O)c3ccccc3)c2)cs1 [A(50), 3-[4′-Amino-4-(3-benzoylamino-phenyl)-[2,5′]bithiazolyl-2′-ylamino]-benzoic acid]			Ki ([2]; Table 1): 8.9 nM; IC50 [3]: > 700 nM; IC50 [4]: > 10000 nM; inhibition at 20 µM (CHK1): 30.1%
